Laboratory results reported in the NIST ThermoML archive (doi:10.1016/j.jct.2017.11.017).
Numbers after ± are expanded uncertainties.

Assay: activity coefficient (dimensionless); of the first substance listed, at infinite dilution; xn = mol fraction of the nth substance listed
Settings: 101.33 kPa, Liquid, Chromatography, x1 = 0

Compound	activity coefficient (308.15 K)	activity coefficient (318.15 K)	activity coefficient (328.15 K)	activity coefficient (338.15 K)	activity coefficient (348.15 K)	activity coefficient (358.15 K)	activity coefficient (368.15 K)	activity coefficient (298.15 K)
C#CCCCC [1-hexyne] + C[N+]1(CCCO)CCOCC1.N#C[N-]C#N	44.5 ± 3	42.9 ± 2.9	41.6 ± 2.8	40.2 ± 2.8	39.1 ± 2.7	38 ± 2.6	37 ± 2.5	
C#CCCCC [1-hexyne] + C[n+]1ccn(CCCO)c1.N#CN=C=[N-]	19.3 ± 1.3	19.6 ± 1.3	20 ± 1.4	20.3 ± 1.4	20.6 ± 1.4	21.4 ± 1.5		18.8 ± 1.3
CCC[N+](=O)[O-] [1-nitropropane] + C[N+]1(CCCO)CCOCC1.N#C[N-]C#N		3.26 ± 0.22	3.35 ± 0.23	3.47 ± 0.24	3.55 ± 0.24	3.65 ± 0.25	3.74 ± 0.25	
CCC[N+](=O)[O-] [1-nitropropane] + C[n+]1ccn(CCCO)c1.N#CN=C=[N-]		2.69 ± 0.18	2.79 ± 0.19	2.89 ± 0.2	2.97 ± 0.2	3.08 ± 0.21	3.17 ± 0.22	
C#CCCCCCC [1-octyne] + C[N+]1(CCCO)CCOCC1.N#C[N-]C#N	151 ± 10	145 ± 10	138 ± 9	133 ± 9	128 ± 9	122 ± 8	118 ± 8	
C#CCCCCCC [1-octyne] + C[n+]1ccn(CCCO)c1.N#CN=C=[N-]	60.2 ± 4.1	59.8 ± 4.1	59.6 ± 4.1	59.6 ± 4.1	59.4 ± 4.1	59.6 ± 4.1		60.1 ± 4.1
C=CCCC [1-pentene] + C[n+]1ccn(CCCO)c1.N#CN=C=[N-]	68.1 ± 4.7	63.5 ± 4.3	59.3 ± 4.1					74 ± 5.1
C#CCCC [1-pentyne] + C[N+]1(CCCO)CCOCC1.N#C[N-]C#N	24.2 ± 1.7	23.6 ± 1.6	23.1 ± 1.6	22.7 ± 1.6	22.4 ± 1.5	22 ± 1.5	21.7 ± 1.5	
C#CCCC [1-pentyne] + C[n+]1ccn(CCCO)c1.N#CN=C=[N-]	11.5 ± 0.8	11.7 ± 0.8	11.8 ± 0.8	12 ± 0.8	12.1 ± 0.8	12.3 ± 0.8		11.3 ± 0.8
CC(C)CC(C)(C)C [2,2,4-trimethylpentane] + C[n+]1ccn(CCCO)c1.N#CN=C=[N-]	662 ± 46	579 ± 40	509 ± 35					767 ± 53
CCOC(C)(C)C [2-ethoxy-2-methylpropane] + C[N+]1(CCCO)CCOCC1.N#C[N-]C#N	275 ± 19	227 ± 16	191 ± 13					339 ± 23
CCOC(C)(C)C [2-ethoxy-2-methylpropane] + C[n+]1ccn(CCCO)c1.N#CN=C=[N-]		78.5 ± 5.4	76.2 ± 5.2	74.5 ± 5.1	73.1 ± 5	72.1 ± 4.9	70.5 ± 4.8	
CCC(C)(C)OC [2-methoxy-2-methylbutane] + C[N+]1(CCCO)CCOCC1.N#C[N-]C#N	97.2 ± 6.7	90.2 ± 6.2	84.1 ± 5.8	78.6 ± 5.4	74 ± 5.1	69.9 ± 4.8	66 ± 5	
CCC(C)(C)OC [2-methoxy-2-methylbutane] + C[n+]1ccn(CCCO)c1.N#CN=C=[N-]		36.8 ± 2.5	37 ± 2.5	37.2 ± 2.5	37.5 ± 2.6	37.7 ± 2.6	38.1 ± 2.6	
